Source: publication PMC5301048, “Selection and early clinical evaluation of the brain‐penetrant 11β‐hydroxysteroid dehydrogenase type 1 (11β‐HSD1) inhibitor UE2343 (Xanamem™)” (British Journal of Pharmacology, 2017)
Like-named read-outs stand apart in the source and are kept apart here.

Experiments:
[1] = target: T1, CYP2C19 (Homo sapiens, UniProt P33261); experiment: Cytochrome P450 inhibition, CYP2C19; type: in vitro ADME; settings: human liver microsomes; read-out: CYP450 isoform 2C19 IC50
T1 construct: tissue Cyprotex Discovery Limited; host or cells: human liver microsomes
Description: (§1) Testing was performed by Cyprotex Discovery Limited, Cheshire, UK. Six test compound concentrations (0.4, 1, 4, 10, 40 and 100 μM; final DMSO concentration 0.25%, final microsome concentration 0.25 mg·mL^−1) were either pre‐incubated for 30 min in the absence and presence of NADPH or underwent a 0 min pre‐incubation with human liver microsomes. At the end of the pre‐incubation period, the probe substrate for each cytochrome P450 (CYP450) isoform (30 μM) and NADPH (1 mM) were then added (final DMSO concentration 0.3%), and the samples were incubated for 5 min at 37°C. Probe substrates were as follows: 1A2 – phenacetin, 2C9 – diclofenac, 2C19 – mephenytoin, 2D6 – dextromethorphan, 3A4 – midazolam and testosterone. Samples were subjected to LC–MS/MS analysis to determine metabolite concentrations. A decrease in the formation of the metabolite compared with vehicle control was used to calculate an IC50 value (test compound concentration which produces 50% inhibition) for each experimental condition.

[2] = Microsomal stability, rat liver microsomes; type: in vitro ADME; settings: mean ± SD [n]
Description: Microsomal stability was determined using pooled human, rat or dog liver microsomes according to the method described in WO2011135276 (Webster et al., 2011a).

[3] = Plasma protein binding, rat plasma; type: in vitro ADME; settings: mean ± SD [n]
[4] = Single ascending dose study, pharmacokinetics; type: in vivo; settings: human; for half-life / Cmax / Tmax / CL renal: both sexes; for half-life / Cmax / Tmax: plasma; for Tmax: median (range); for CL renal: urine and plasma
Description: A double‐blind, randomized, placebo‐controlled single ascending dose study was carried out at Simbec Research Ltd, Merthyr Tydfil, UK. Each cohort consisted of six healthy male subjects and two females of non‐child bearing potential. Two male ‘dose leader’ subjects (1 active : 1 placebo) were dosed first in each cohort. The remainder of the cohort (5 active : 1 placebo) were dosed 24 h later. Dose cohorts were 2, 5, 10, 18, 25 and 35 mg. Safety, pharmacokinetic and pharmacodynamic assessments were made at pre‐determined time‐points during each part of the study. Dose escalation was dependent upon satisfactory review of the blinded safety (up to Day 6) and pharmacokinetic (up to 24 h post‐dose) data from the preceding cohort.
Laboratory evaluation of clinical safety parameters was carried out using standard validated methods. Measurement of plasma pharmacodynamic markers [adrenocorticotropic hormone (ACTH), cortisol, 4‐androstenedione, testosterone and dehydroepiandrosterone sulphate (DHEA‐s)] was carried out using commercially available kits. Each method was fully validated prior to analysis. Urinary steroid metabolites were measured according to established methods (Boonen et al., 2013). UE2343 levels in plasma, urine and CSF was determined by LC–MS/MS using fully validated methods.
The data and statistical analysis comply with the recommendations on experimental design and analysis in pharmacology (Curtis et al., 2015). Levels of probability, P < 0.05 were deemed to constitute the threshold for statistical significance. Pharmacokinetic parameters, except Tmax (time of maximum observed drug concentration), are given as mean ± coefficient of variation (CV%). Tmax is given as median ± range. For each of the pharmacodynamic parameters [ACTH, cortisol, adrenal androgens, tetrahydrocortisols (THFs)/tetrahydrocortisone (THE) ratio], the maximum % change from baseline for each subject was subjected to ANOVA. For selected data, an additional covariate factor for the baseline was also included in the ANOVA/analysis of covariance (ANCOVA) model. Associated P‐values <0.05 for each comparison have been presented.

[5] = target: T2, CYP1A2 (Homo sapiens, UniProt P05177); experiment: Cytochrome P450 inhibition, CYP1A2; type: in vitro ADME; settings: human liver microsomes; read-out: CYP450 isoform 1A2 IC50
T2 construct: tissue Cyprotex Discovery Limited; host or cells: human liver microsomes
T2 sequence (P05177 1-516): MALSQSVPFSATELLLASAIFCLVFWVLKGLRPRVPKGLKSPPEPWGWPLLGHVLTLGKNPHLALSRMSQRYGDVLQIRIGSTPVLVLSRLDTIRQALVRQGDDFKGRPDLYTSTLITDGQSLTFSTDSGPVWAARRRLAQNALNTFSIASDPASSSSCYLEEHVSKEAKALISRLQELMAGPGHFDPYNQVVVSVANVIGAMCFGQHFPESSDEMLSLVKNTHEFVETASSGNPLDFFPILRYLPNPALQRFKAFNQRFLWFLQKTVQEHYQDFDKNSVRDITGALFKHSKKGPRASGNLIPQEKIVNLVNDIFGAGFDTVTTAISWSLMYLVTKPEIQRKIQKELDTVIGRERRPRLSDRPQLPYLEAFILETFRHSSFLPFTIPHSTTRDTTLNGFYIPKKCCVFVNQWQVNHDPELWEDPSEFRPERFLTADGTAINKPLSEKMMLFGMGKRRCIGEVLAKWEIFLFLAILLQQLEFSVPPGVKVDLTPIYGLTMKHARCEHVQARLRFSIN
Description: as §1

[6] = target: T3, CYP2C9 (Homo sapiens, UniProt P11712); experiment: Cytochrome P450 inhibition, CYP2C9; type: in vitro ADME; settings: human liver microsomes; read-out: CYP450 isoform 2C9 IC50
T3 construct: tissue Cyprotex Discovery Limited; host or cells: human liver microsomes
Description: as §1

[7] = single oral dose 10 mg, mean (CV%)
[8] = single oral dose 18 mg, mean (CV%)
[9] = single oral dose 25 mg, mean (CV%)
[10] = single oral dose 35 mg, mean (CV%)

T1 sequence (P33261 whole entry, canonical isoform): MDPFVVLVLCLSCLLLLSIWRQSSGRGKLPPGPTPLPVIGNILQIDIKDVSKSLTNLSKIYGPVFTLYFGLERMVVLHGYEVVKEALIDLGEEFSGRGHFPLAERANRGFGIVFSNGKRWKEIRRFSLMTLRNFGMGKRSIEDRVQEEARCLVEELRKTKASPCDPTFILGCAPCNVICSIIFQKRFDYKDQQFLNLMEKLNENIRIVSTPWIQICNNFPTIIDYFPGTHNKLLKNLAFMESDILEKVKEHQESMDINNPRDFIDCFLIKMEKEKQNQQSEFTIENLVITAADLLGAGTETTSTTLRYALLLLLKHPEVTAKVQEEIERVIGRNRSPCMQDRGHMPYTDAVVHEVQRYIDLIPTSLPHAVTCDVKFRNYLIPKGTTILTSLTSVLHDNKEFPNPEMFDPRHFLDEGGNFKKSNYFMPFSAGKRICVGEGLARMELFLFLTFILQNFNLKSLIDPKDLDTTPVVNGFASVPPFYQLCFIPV
T3 sequence (P11712 whole entry, canonical isoform): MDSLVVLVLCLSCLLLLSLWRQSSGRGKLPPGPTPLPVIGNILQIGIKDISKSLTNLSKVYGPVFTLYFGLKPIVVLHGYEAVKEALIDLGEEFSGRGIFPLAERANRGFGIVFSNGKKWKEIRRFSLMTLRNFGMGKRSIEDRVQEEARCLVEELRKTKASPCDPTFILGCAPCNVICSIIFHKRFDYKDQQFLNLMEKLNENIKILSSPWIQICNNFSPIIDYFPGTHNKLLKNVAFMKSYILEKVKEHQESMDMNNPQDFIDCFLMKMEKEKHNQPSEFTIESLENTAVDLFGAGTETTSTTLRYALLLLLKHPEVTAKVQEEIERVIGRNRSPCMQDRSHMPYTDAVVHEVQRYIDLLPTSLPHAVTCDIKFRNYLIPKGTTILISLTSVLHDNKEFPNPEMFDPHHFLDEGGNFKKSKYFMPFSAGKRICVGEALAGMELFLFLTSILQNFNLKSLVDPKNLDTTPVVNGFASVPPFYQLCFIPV

O=C(c1csc(-c2cn[nH]c2)c1)N1C2CCC1CC(O)(c1ncccn1)C2 (stereo not drawn) [compound 4]
IC50 [1]: 1.7 µM
Liver microsomal stability (% parent at 30 min), rat [2]: 74 ± 1 [3] % parent at 30 min
Plasma protein binding (% unbound), rat [3]: 26 ± 0 [2] % unbound
half-life ([4]; oral, single doses, range across doses): 10.5 to 18.7 h
Cmax [4, 7]: 40.4 ng/mL
half-life [4, 7]: 18.7 h
Tmax ([4]; single oral dose 10 mg): 3.5 h
Cmax [4, 8]: 136 ng/mL
half-life [4, 8]: 13.6 h
Tmax ([4]; single oral dose 18 mg): 4 h
Cmax [4, 9]: 278 ng/mL
half-life [4, 9]: 10.5 h
Tmax ([4]; single oral dose 25 mg): 4 h
Cmax [4, 10]: 329 ng/mL
half-life [4, 10]: 11.4 h
Tmax ([4]; single oral dose 35 mg): 4 h
CL renal ([4]; oral, single doses, read-out: renal clearance (CLR)): < 2.17 mL/min
CL renal ([4]; single oral dose 10 mg, mean (CV%), read-out: CLR (renal clearance) (converted)): 1.17 mL/min
CL renal ([4]; single oral dose 18 mg, mean (CV%), read-out: CLR (renal clearance) (converted)): 2.67 mL/min
CL renal ([4]; single oral dose 25 mg, mean (CV%), read-out: CLR (renal clearance) (converted)): 2.17 mL/min
CL renal ([4]; single oral dose 35 mg, mean (CV%), read-out: CLR (renal clearance) (converted)): 2 mL/min
Urinary excretion, % of the respective doses ([4]; single doses): ≤ 1.8%
Plasma levels ([4]; single doses of 2 and 5 mg, in words): below the level of quantification
AUC0‐t [4, 7]: 550 (90%) ng^.h·mL^−1
AUC0‐∞ [4, 7]: 856 (70%) ng^.h·mL^−1
Ae(0–120h) (%) [4, 7]: 0.53 (85%)
Ae(0–120h), amount excreted in urine [4, 7]: 52.5 (85%) μg
Oral clearance [4, 7]: 18.5 (75%) L·h^−1
AUC0‐t [4, 8]: 2291 (87%) ng^.h·mL^−1
AUC0‐∞ [4, 8]: 2581 (84%) ng^.h·mL^−1
Ae(0–120h) (%) [4, 8]: 1.67 (66%)
Ae(0–120h), amount excreted in urine [4, 8]: 300 (66%) μg
Oral clearance [4, 8]: 14.5 (90%) L·h^−1
AUC0‐t [4, 9]: 3486 (39%) ng^.h·mL^−1
AUC0‐∞ [4, 9]: 3825 (35%) ng^.h·mL^−1
Ae(0–120h) (%) [4, 9]: 1.75 (37%)
Ae(0–120h), amount excreted in urine [4, 9]: 438 (37%) μg
Oral clearance [4, 9]: 7.32 (38%) L·h^−1
AUC0‐t [4, 10]: 4016 (30%) ng^.h·mL^−1
AUC0‐∞ [4, 10]: 4261 (29%) ng^.h·mL^−1
Ae(0–120h) (%) [4, 10]: 1.43 (15%)
Ae(0–120h), amount excreted in urine [4, 10]: 501 (15%) μg
Oral clearance [4, 10]: 8.78 (28%) L·h^−1
IC50 [5]: > 50 µM
IC50 [6]: > 50 µM
